Experiments:
Mus musculus [1] = assay: Reduction in circulating lymphocytes in Balb/c mouse blood at 0.5 mg/kg, po measured at 4 hrs by hematology analyzer based analysis; format: functional; parameters: scale not given: the % may be the effect or the level left
Mus musculus [2] = assay: Reduction in circulating lymphocytes in Balb/c mouse blood at 30 mg/kg, po measured at 4 hrs by hematology analyzer based analysis; format: functional; parameters: scale not given: the % may be the effect or the level left
Mus musculus [3] = assay: Reduction in circulating lymphocytes in Balb/c mouse blood at 0.5 mg/kg, po measured at 24 hrs by hematology analyzer based analysis; format: functional; parameters: scale not given: the % may be the effect or the level left
Mus musculus [4] = assay: Reduction in circulating lymphocytes in Balb/c mouse blood at 30 mg/kg, po measured at 24 hrs by hematology analyzer based analysis; format: functional; parameters: scale not given: the % may be the effect or the level left
[5] = Drug metabolism in Balb/c mouse blood assessed as concentration of parent compound at 0.5 mg/kg, po measured at 4 hrs by LC-MS/MS analysis; format: ADME, organism-based; settings: in vivo, BLD = below limit of detection
[6] = Drug metabolism in Balb/c mouse blood assessed as concentration of parent compound at 30 mg/kg, po measured at 4 hrs by LC-MS/MS analysis; format: ADME, organism-based; settings: Balb/c, blood, read-out: Ct
[7] = Drug metabolism in Balb/c mouse blood assessed as concentration of phosphate ester metabolite at 0.5 mg/kg, po measured at 4 hrs by LC-MS/MS analysis; format: ADME, organism-based; settings: in vivo, BLD = below limit of detection
[8] = Drug metabolism in Balb/c mouse blood assessed as phosphate ester metabolite formation at 30 mg/kg, po measured at 4 hrs by LC-MS/MS analysis; format: ADME, organism-based; settings: in vivo
[9] = Drug metabolism in Balb/c mouse blood assessed as concentration of parent compound at 0.5 mg/kg, po measured at 24 hrs by LC-MS/MS analysis; format: ADME, organism-based; settings: read-out: Ct
[10] = Drug metabolism in Balb/c mouse blood assessed as concentration of parent compound at 30 mg/kg, po measured at 24 hrs by LC-MS/MS analysis; format: ADME, organism-based; settings: Balb/c, blood, read-out: Ct
[11] = Drug metabolism in Balb/c mouse blood assessed as concentration of phosphate ester metabolite formation at 0.5 mg/kg, po measured at 24 hrs by LC-MS/MS analysis; format: ADME, organism-based; settings: in vivo
[12] = Drug metabolism in Balb/c mouse blood assessed as concentration of phosphate ester metabolite formation at 30 mg/kg, po measured at 24 hrs by LC-MS/MS analysis; format: ADME, organism-based; settings: in vivo
[13] = Ratio of drug metabolism in Balb/c mouse blood assessed as phosphate ester metabolite to parent drug at 0.5 mg/kg, po measured at 24 hrs by LC-MS/MS analysis; format: ADME, organism-based; settings: in vivo
[14] = Ratio of drug metabolism in Balb/c mouse blood assessed as phosphate ester metabolite to parent drug at 30 mg/kg, po measured at 24 hrs by LC-MS/MS analysis; format: ADME, organism-based; settings: in vivo
Rattus norvegicus [15] = assay: Reduction in circulating lymphocytes in Lewis rat blood at 3 mg/kg, po measured at 4 hrs by hematology analyzer based analysis; format: functional; parameters: scale not given: the % may be the effect or the level left
[16] = Drug metabolism in Lewis rat blood assessed as concentration of parent compound at 3 mg/kg, po measured at 4 hrs by LC-MS/MS analysis; format: ADME, organism-based; settings: read-out: Ct
Rattus norvegicus [17] = assay: Reduction in circulating lymphocytes in Lewis rat blood at 3 mg/kg, po measured at 24 hrs by hematology analyzer based analysis; format: functional; parameters: scale not given: the % may be the effect or the level left
[18] = Drug metabolism in Lewis rat blood assessed as concentration of parent compound at 3 mg/kg, po measured at 24 hrs by LC-MS/MS analysis
[19] = Half-life in Lewis rat at 3 mg/kg, po measured over 72 hrs by LC-MS/MS analysis; format: ADME, organism-based; settings: in vivo
[20] = Ratio of drug metabolism in Lewis rat blood assessed as phosphate ester metabolite to parent drug at 3 mg/kg, po measured at 24 hrs by LC-MS/MS analysis; format: ADME, organism-based; settings: in vivo
[21] = Terminal half-life in Sprague-Dawley rat at 1 mg/kg, iv; format: ADME, organism-based; settings: in vivo, read-out: beta t1/2 (converted)
[22] = Terminal half-life in beagle dog at 1 mg/kg, iv; format: ADME, organism-based, Canis lupus familiaris; settings: in vivo, read-out: beta t1/2 (converted)
[23] = Terminal half-life in cynomolgus monkey at 1 mg/kg, iv; format: ADME, organism-based, Macaca fascicularis; settings: in vivo, read-out: beta t1/2 (converted)
[24] = AUC ratio in orally dosed Sprague-Dawley rat blood assessed as phosphate metabolite to parent compound; format: ADME, organism-based; settings: in vivo, po
[25] = AUC ratio in orally dosed Beagle dog blood assessed as phosphate metabolite to parent compound; format: ADME, organism-based, Canis lupus familiaris; settings: in vivo, po
[26] = AUC ratio in orally dosed cynomolgus monkey blood assessed as phosphate metabolite to parent compound; format: ADME, organism-based, Macaca fascicularis; settings: in vivo, po
Rattus norvegicus [27] = assay: Drug metabolism in Lewis rat blood assessed as concentration of phosphate ester metabolite formation at 3 mg/kg, po measured at 4 hrs by LC-MS/MS analysis; settings: in vivo
[28] = biological target: Sphingosine 1-phosphate receptor 3 (Homo sapiens, UniProt Q99500); assay: Agonist activity at human recombinant S1P3 expressed in CHO cell membranes assessed as stimulation of [35S]-GTPgammaS binding measured after 45 mins by liquid scintillation counting assay; parameters: species or system Cell membrane
[29] = Pulmonary toxicity in Lewis rat assessed as elevation of BAL protein level at 1 mg/kg by advia1800 chemistry analyzer; format: organism-based; settings: in vivo
[30] = Cardiotoxicity in human iPSC derived cardiomyocytes assessed as reduction in beating rate at 1 nM measured over 2 hrs by multi-electrode array relative to control; format: toxicity, cell-based; parameters: scale not given: the % may be the effect or the level left; settings: stem cell-derived cardiomyocyte, 0.001 µM
[31] = Cardiotoxicity in human iPSC derived cardiomyocytes assessed as reduction in beating rate at 10 nM measured over 2 hrs by multi-electrode array relative to control; format: toxicity, cell-based; parameters: scale not given: the % may be the effect or the level left; settings: stem cell-derived cardiomyocyte, 0.01 µM
Rattus norvegicus [32] = assay: Reduction in circulating lymphocytes in Lewis rat blood at 2 mg/kg, po measured at 4 hrs by hematology analyzer based analysis; format: functional; parameters: scale not given: the % may be the effect or the level left
[33] = Drug metabolism in Lewis rat blood assessed as concentration of parent compound at 2 mg/kg, po measured at 4 hrs by LC-MS/MS analysis; format: ADME, organism-based; settings: read-out: Ct
Rattus norvegicus [34] = assay: Reduction in circulating lymphocytes in Lewis rat blood at 2 mg/kg, po measured at 24 hrs by hematology analyzer based analysis; format: functional; parameters: scale not given: the % may be the effect or the level left
[35] = Drug metabolism in Lewis rat blood assessed as concentration of parent compound at 2 mg/kg, po measured at 24 hrs by LC-MS/MS analysis; format: ADME, organism-based; settings: read-out: Ct
[36] = Half-life in Lewis rat at 2 mg/kg, po measured over 72 hrs by LC-MS/MS analysis; format: ADME, organism-based; settings: in vivo
[37] = Ratio of drug metabolism in Lewis rat blood assessed as phosphate ester metabolite to parent drug at 2 mg/kg, po measured at 24 hrs by LC-MS/MS analysis; format: ADME, organism-based; settings: in vivo
[38] = Pulmonary toxicity in Lewis rat assessed as elevation of BAL protein level at 25 mg/kg by advia1800 chemistry analyzer; format: organism-based; settings: in vivo
Rattus norvegicus [39] = assay: Reduction in circulating lymphocytes in Lewis rat blood assessed as effective dose after oral dosing measured at 24 hrs by hematology analyzer based analysis; format: functional
Rattus norvegicus [40] = assay: Drug metabolism in Lewis rat blood assessed as concentration of phosphate ester metabolite formation at 2 mg/kg, po measured at 4 hrs by LC-MS/MS analysis; settings: in vivo

Chain of Sphingosine 1-phosphate receptor 3 (Q99500 whole entry): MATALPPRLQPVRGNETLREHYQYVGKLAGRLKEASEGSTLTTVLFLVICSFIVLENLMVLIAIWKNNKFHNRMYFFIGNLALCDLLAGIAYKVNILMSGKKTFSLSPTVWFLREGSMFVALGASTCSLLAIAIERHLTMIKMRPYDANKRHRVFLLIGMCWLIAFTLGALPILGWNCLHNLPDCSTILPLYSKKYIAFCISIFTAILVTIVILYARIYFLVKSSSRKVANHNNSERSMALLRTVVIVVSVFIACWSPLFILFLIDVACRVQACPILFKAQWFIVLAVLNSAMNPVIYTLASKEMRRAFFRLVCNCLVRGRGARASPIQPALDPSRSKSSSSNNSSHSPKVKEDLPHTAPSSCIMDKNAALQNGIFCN

## CCCCCC[C@@H]1CCc2cc([C@H]3CC[C@](N)(CO)C3)ccc2C1 [BMS-986104]
Mus musculus [1]
  Activity: 17%
Mus musculus [2]
  Activity: 88%
Mus musculus [3]
  Activity: 73%
Mus musculus [4]
  Activity: 90%
[5]
  Ct: Bld
[6]
  concentration at 4 h: 1000 nM
[7]
  Drug metabolism: Bld
[8]
  Drug metabolism: 150 nM
[9]
  concentration at 24 h: 19 nM
[10]
  concentration at 24 h: 1200 nM
[11]
  Drug metabolism: 20 nM
[12]
  Drug metabolism: 620 nM
[13]
  Ratio: 1
[14]
  Ratio: 0.5
Rattus norvegicus [15]
  Activity: 48%
[16]
  concentration at 4 h: 130 nM
Rattus norvegicus [17]
  Activity: 82%
[18]
  Ct: 160 nM
[19]
  half-life: > 75 h
[20]
  Ratio: 1.6
[21]
  half-life: 131 h
[22]
  half-life: 131 h
[23]
  half-life: 131 h
[24]
  Ratio AUC: 2.5
[25]
  Ratio AUC: 2.4
[26]
  Ratio AUC: 0.3
Rattus norvegicus [27]
  Drug metabolism: 90 nM

## CCCCCC[C@@H]1CCc2cc([C@H]3CC[C@](N)(COP(=O)(O)O)C3)ccc2C1
[28]
  EC50: > 1 µM

## O=C(O)C[C@H]1CCCN(C[C@@H](O)c2ccc(-c3noc(-c4onc(-c5ccccc5)c4C(F)(F)F)n3)cc2)C1
[29]
  Activity: 24.3 mg/dL
[30]
  Activity: 36%
[31]
  Activity: 57%

## COc1ccc(CC[C@H]2CCc3cc([C@H]4CC[C@](N)(CO)C4)ccc3C2)cc1
Rattus norvegicus [32]
  Activity: 33%
[33]
  concentration at 4 h: 170 nM
Rattus norvegicus [34]
  Activity: 84%
[35]
  concentration at 24 h: 40 nM
[36]
  half-life: 7 h
[37]
  Ratio: 0.75
[38]
  Activity: 24.3 mg/dL
Rattus norvegicus [39]
  ED50: 0.6 mg/kg
Rattus norvegicus [40]
  Drug metabolism: 10 nM

— ChEMBL document CHEMBL4765241, “Identification and Preclinical Pharmacology of ((1 R,3 S)-1-Amino-3-(( S)-6-(2-methoxyphenethyl)-5,6,7,8-tetrahydronaphthalen-2-yl)cyclopentyl)methanol (BMS-986166): A Differentiated Sphingosine-1-phosphate Receptor 1 (S1P) Modulator Advanced into Clinical Trials” (J Med Chem, 2019)
